Assay results from US10144706B2 (BRISTOL-MYERS SQUIBB COMPANY, priority 2016, dated 2018).
Like-named read-outs stand apart in the source and are kept apart here.

Target: T1, PD-1/PD-L1 interaction (PD-1-Ig / PD-L1-His) (Homo sapiens, UniProt Q9NZQ7)
T1 construct: hPDL1(18-239)-TVMV-His; TVMV protease site linker (C); made in house; host or cells: HEK293T
Experiment: PD-1/PD-L1 Homogenous Time-Resolved Fluorescence (HTRF) binding assay
Conditions: PD-L1-His 10 nM, PD-1-Ig 20 nM, read-out: Range or IC50
Summary of the method: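 Human PD-L1-His (10 nM final) was pre-incubated with inhibitor for 15 min, then PD-1-Ig (20 nM final) was added for a further 15 min in dPBS with 0.1% BSA and 0.05% Tween-20. Binding was detected by HTRF using Eu-cryptate anti-Ig (1 nM) and APC anti-His (20 nM).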

T1 sequence (Q9NZQ7 with tags, fused parts or gaps): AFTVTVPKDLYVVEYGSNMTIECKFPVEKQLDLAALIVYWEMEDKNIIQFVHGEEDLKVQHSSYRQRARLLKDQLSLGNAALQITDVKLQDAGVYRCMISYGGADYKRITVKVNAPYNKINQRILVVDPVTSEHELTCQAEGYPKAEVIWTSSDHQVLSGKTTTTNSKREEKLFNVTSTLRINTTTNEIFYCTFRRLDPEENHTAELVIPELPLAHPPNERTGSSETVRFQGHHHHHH

| IC50 (IC50 range class) [nM] | IC50 (numeric IC50) [nM] | Compound |
| --- | --- | --- |
| 0.04 to 20 | – | COCC(O)CNCCCOc1cccc(-c2cccc(OCCCNCC(O)COC)c2C)c1C (centres unmarked) [Example 2094, 3,3′-((((2,2′-dimethyl-[1,1′-biphenyl]-3,3′-diyl)bis(oxy))bis(propane-3,1-diyl))bis(azanediyl))bis(1-methoxypropan-2-ol)] |
| 20.1 to 90 | – | Cc1c(OCCCN(C)CCOCCN(C)CCCOc2cccc(-c3cccc(OCCCN4CC[C@@H](O)C4)c3C)c2C)cccc1-c1cccc(OCCCN2CC[C@@H](O)C2)c1C [Example 2095, (3R,3′R)-1,1′-(((((((oxybis(ethane-2,1-diyl))bis(methylazanediyl))bis(propane-3,1-diyl))bis(oxy))bis(2,2′-dimethyl-[1,1′-biphenyl]-3′,3-diyl))bis(oxy))bis(propane-3,1-diyl))bis(pyrrolidin-3-ol)] |
| 20.1 to 90 | – | CNCCOCCN(C)CCCOc1cccc(-c2cccc(OCCCN3CC[C@@H](O)C3)c2C)c1C [Example 2096, (R)-1-(3-((2,2′-dimethyl-3′-(3-(methyl(2-(2-(methylamino)ethoxy)ethyl)amino)propoxy)-[1,1′-biphenyl]-3-yl)oxy)propyl)pyrrolidin-3-ol] |
| 90.1 to 1000 | – | Cc1c(OCCCN[C@H](CO)[C@H](O)c2ccccc2)cccc1-c1cccc(OCCCN[C@H](CO)[C@H](O)c2ccccc2)c1C [Example 2097] |
| 0.04 to 20 | – | Cc1c(OCCCNC[C@H](O)CO)cccc1-c1cccc(OCCCN[C@H](CO)[C@H](O)c2ccccc2)c1C [Example 2098, (S)-3-((3-((3′-(3-(((1R,2R)-1,3-dihydroxy-1-phenylpropan-2-yl)amino)propoxy)-2,2′-dimethyl-[1,1′-biphenyl]-3-yl)oxy)propyl)amino)propane-1,2-diol] |
| – | 1250 | Cc1c(OCCCN(Cc2cncc(C#N)c2)C[C@H](O)CO)cccc1-c1cccc(OCCCN(Cc2cncc(C#N)c2)C[C@H](O)CO)c1C [Example 2099, 5,5′-(((((2,2′-dimethyl-[1,1′-biphenyl]-3,3′-diyl)bis(oxy))bis(propane-3,1-diyl))bis(((S)-2,3-dihydroxypropyl)azanediyl))bis(methylene))dinicotinonitrile] |
| 20.1 to 90 | – | Cc1c(OCCCN(CC#N)C[C@H](O)CO)cccc1-c1cccc(OCCCN(CC#N)C[C@H](O)CO)c1C [Example 2100, 2,2′-((((2,2′-dimethyl-[1,1′-biphenyl]-3,3′-diyl)bis(oxy))bis(propane-3,1-diyl))bis(((S)-2,3-dihydroxypropyl)azanediyl))diacetonitrile] |
| 20.1 to 90 | – | Cc1c(OCCCN(CCc2ccccn2)C[C@H](O)CO)cccc1-c1cccc(OCCCN(CCc2ccccn2)C[C@H](O)CO)c1C [Example 2101, (2S,2′S)-3,3′-((((2,2′-dimethyl-[1,1′-biphenyl]-3,3′-diyl)bis(oxy))bis(propane-3,1-diyl))bis((2-(pyridin-2-yl)ethyl)azanediyl))bis(propane-1,2-diol)] |
| 20.1 to 90 | – | Cc1c(OCCCN(CCc2cccnc2)C[C@H](O)CO)cccc1-c1cccc(OCCCN(CCc2cccnc2)C[C@H](O)CO)c1C [Example 2102, (2S,2′S)-3,3′-((((2,2′-dimethyl-[1,1′-biphenyl]-3,3′-diyl)bis(oxy))bis(propane-3,1-diyl))bis((2-(pyridin-3-yl)ethyl)azanediyl))bis(propane-1,2-diol)] |
| 0.04 to 20 | – | Cc1c(OCCCNC[C@H](O)CO)cccc1-c1cccc(OCCCN(CCc2cccnc2)C[C@H](O)CO)c1C [Example 2103, (S)-3-((3-((3′-(3-(((S)-2,3-dihydroxypropyl)(2-(pyridin-3-yl)ethyl)amino)propoxy)-2,2′-dimethyl-[1,1′-biphenyl]-3-yl)oxy)propyl)amino)propane-1,2-diol] |
| 20.1 to 90 | – | Cc1c(OCCCN2CCCCC2)cccc1-c1cccc(OCCCN2CC[C@@H](O)C2)c1C [Example 2105, (R)-1-(3-((2,2′-dimethyl-3′-(3-(piperidin-1-yl)propoxy)-[1,1′-biphenyl]-3-yl)oxy)propyl)pyrrolidin-3-ol] |
| 20.1 to 90 | – | Cc1c(OCCCN2CCC(CO)CC2)cccc1-c1cccc(OCCCN2CC[C@@H](O)C2)c1C [Example 2106, (R)-1-(3-((3′-(3-(4-(hydroxymethyl)piperidin-1-yl)propoxy)-2,2′-dimethyl-[1,1′-biphenyl]-3-yl)oxy)propyl)pyrrolidin-3-ol] |
| 20.1 to 90 | – | CC(=O)NC1CCN(CCCOc2cccc(-c3cccc(OCCCN4CC[C@@H](O)C4)c3C)c2C)C1 (stereo partly drawn) [Example 2107, N-(1-(3-((3′-(3-((R)-3-hydroxypyrrolidin-1-yl)propoxy)-2,2′-dimethyl-[1,1′-biphenyl]-3-yl)oxy)propyl)pyrrolidin-3-yl)acetamide] |
| 90.1 to 1000 | – | Cc1c(OCCCN2CCN(c3ccccn3)CC2)cccc1-c1cccc(OCCCN2CC[C@@H](O)C2)c1C [Example 2108, (R)-1-(3-((2,2′-dimethyl-3′-(3-(4-(pyridin-2-yl)piperazin-1-yl)propoxy)-[1,1′-biphenyl]-3-yl)oxy)propyl)pyrrolidin-3-ol] |
| 90.1 to 1000 | – | Cc1c(OCCCN2CCN(CC(=O)NC(C)C)CC2)cccc1-c1cccc(OCCCN2CC[C@@H](O)C2)c1C [Example 2109, (R)-2-(4-(3-((3′-(3-(3-hydroxypyrrolidin-1-yl)propoxy)-2,2′-dimethyl-[1,1′-biphenyl]-3-yl)oxy)propyl)piperazin-1-yl)-N-isopropylacetamide] |
| 90.1 to 1000 | – | Cc1c(OCCCN(C)CCc2ccccc2)cccc1-c1cccc(OCCCN2CC[C@@H](O)C2)c1C [Example 2110, (R)-1-(3-((2,2′-dimethyl-3′-(3-(methyl(phenethyl)amino)propoxy)-[1,1′-biphenyl]-3-yl)oxy)propyl)pyrrolidin-3-ol] |
| 20.1 to 90 | – | COc1ccccc1N1CCN(CCCOc2cccc(-c3cccc(OCCCN4CC[C@@H](O)C4)c3C)c2C)CC1 [Example 2111, (R)-1-(3-((3′-(3-(4-(2-methoxyphenyl)piperazin-1-yl)propoxy)-2,2′-dimethyl-[1,1′-biphenyl]-3-yl)oxy)propyl)pyrrolidin-3-ol] |
| – | 81 | Cc1c(OCCCNC[C@H](O)c2ccccc2)cccc1-c1cccc(OCCCN2CC[C@@H](O)C2)c1C [Example 2112, (R)-1-(3-((3′-(3-(((R)-2-hydroxy-2-phenylethyl)amino)propoxy)-2,2′-dimethyl-[1,1′-biphenyl]-3-yl)oxy)propyl)pyrrolidin-3-ol] |
| 20.1 to 90 | – | Cc1c(OCCCNC[C@@H](O)c2ccccc2)cccc1-c1cccc(OCCCN2CC[C@@H](O)C2)c1C [Example 2113, (R)-1-(3-((3′-(3-(((S)-2-hydroxy-2-phenylethyl)amino)propoxy)-2,2′-dimethyl-[1,1′-biphenyl]-3-yl)oxy)propyl)pyrrolidin-3-ol] |
| 90.1 to 1000 | – | Cc1c(OCCCN2CCC[C@@H](O)C2)cccc1-c1cccc(OCCCN2CC[C@@H](O)C2)c1C [Example 2114, (R)-1-(3-((3′-(3-((R)-3-hydroxypyrrolidin-1-yl)propoxy)-2,2′-dimethyl-[1,1′-biphenyl]-3-yl)oxy)propyl)piperidin-3-ol] |
| 20.1 to 90 | – | Cc1c(OCCCN2CC[C@@H](O)C2)cccc1-c1cccc(OCCCN2CCC[C@H](O)C2)c1C [Example 2115, (S)-1-(3-((3′-(3-((R)-3-hydroxypyrrolidin-1-yl)propoxy)-2,2′-dimethyl-[1,1′-biphenyl]-3-yl)oxy)propyl)piperidin-3-ol] |
| 90.1 to 1000 | – | Cc1c(OCCCN[C@@H](Cc2ccccn2)C(=O)O)cccc1-c1cccc(OCCCN2CC[C@@H](O)C2)c1C [Example 2116, (S)-2-((3-((3′-(3-((R)-3-hydroxypyrrolidin-1-yl)propoxy)-2,2′-dimethyl-[1,1′-biphenyl]-3-yl)oxy)propyl)amino)-3-(pyridin-2-yl)propanoic acid] |
| 90.1 to 1000 | – | Cc1c(OCCCN[C@@H](Cc2cccnc2)C(=O)O)cccc1-c1cccc(OCCCN2CC[C@@H](O)C2)c1C [Example 2117, (S)-2-((3-((3′-(3-((R)-3-hydroxypyrrolidin-1-yl)propoxy)-2,2′-dimethyl-[1,1′-biphenyl]-3-yl)oxy)propyl)amino)-3-(pyridin-3-yl)propanoic acid] |
| 20.1 to 90 | – | Cc1c(OCCCNCCc2ccccn2)cccc1-c1cccc(OCCCN2CC[C@@H](O)C2)c1C [Example 2118, (R)-1-(3-((2,2′-dimethyl-3′-(3-((2-(pyridin-2-yl)ethyl)amino)propoxy)-[1,1′-biphenyl]-3-yl)oxy)propyl)pyrrolidin-3-ol] |
| 0.04 to 20 | – | Cc1c(COc2cc(OCc3cncc(C#N)c3)c(CN3CCCC[C@H]3C(=O)O)cc2Cl)cccc1-c1cccc(COc2cc(OCc3cncc(C#N)c3)c(CN3CCCC[C@H]3C(=O)O)cc2Cl)c1C [Example 2119, (2S,2′S)-1,1′-(((((2,2′-dimethyl-[1,1′-biphenyl]-3,3′-diyl)bis(methylene))bis(oxy))bis(5-chloro-2-((5-cyanopyridin-3-yl)methoxy)-4,1-phenylene))bis(methylene))bis(piperidine-2-carboxylic acid)] |
| 0.04 to 20 | – | Cc1c(COc2cc(OCc3cncc(C#N)c3)c(CO)cc2Cl)cccc1-c1cccc(COc2cc(OCc3cncc(C#N)c3)c(CN3CCCC[C@H]3C(=O)O)cc2Cl)c1C [Example 2120, (S)-1-(5-chloro-4-((3′-((2-chloro-5-((5-cyanopyridin-3-yl)methoxy)-4-(hydroxymethyl)phenoxy)methyl)-2,2′-dimethyl-[1,1′-biphenyl]-3-yl)methoxy)-2-((5-cyanopyridin-3-yl)methoxy)benzyl)piperidine-2-carboxylic acid] |
